From US7273880B2, “Selective NPY (Y5) antagonists” (H. Lunbeck A/S, priority 1999, dated 2007)
Counter-ions that a name gives are not always drawn.

SMILES	melting point
COc1ccc(C)cc1S(=O)(=O)NC[C@H]1CC[C@H](Nc2nc3c(s2)CCOc2ccccc2-3)CC1 (as salt: HCl) [Example 48, trans-1-Aza-4,5-dihydro-2-{4-(2-methoxy-5-methyl)phenyl-sulfonylaminomethyl}cyclohexylamino-6-oxa-3-thia-benzo[e]azulene]	100 to 105 °C (dec.)
COc1ccc(C)cc1S(=O)(=O)NCCOCCNc1nc2c(s1)CCCc1ccc(F)cc1-2 (as salt: HCl) [Example 58, 1-Aza-9-fluoro-4,5-dihydro-2-{2-[2-(2-methoxy-5-methylphenyl)sulfonylamino]ethoxy}ethylamino-3-thia-benzo[e]azulene]	56 to 60 °C
COc1ccc2c(c1)-c1nc(NC[C@H]3CC[C@H](NS(C)(=O)=O)CC3)sc1CCO2 (as salt: HCl) [Example 63, trans-1-Aza-4,5-dihydro-9-methoxy-2-{4-methylsulfonyl-amino}cyclohexylmethylamino-6-oxa-3-thia-benzo[e]azulene]	200 to 215 °C
COc1cccc2c1OCCc1sc(NC[C@H]3CC[C@H](NS(=O)(=O)N(C)C)CC3)nc1-2 (as salt: HCl) [Example 66, trans-1-Aza-4,5-dihydro-7-methoxy-2-{4-dimethylamino-sulfonylamino}cyclohexylmethylamino-6-oxa-3-thia-benzo[e]azulene]	206 to 208 °C
CC(C)S(=O)(=O)NCCOCCNc1nc2c(s1)CCCc1ccc(F)cc1-2 (as salt: HCl) [Example 69, 1-Aza-9-fluoro-4,5-dihydro-2-(2-(2-isopropyl-sulfonylamino)-ethoxy)ethylamino-3-thia-benzo[e]-azulene]	50 to 55 °C
O=C1OCCN1C[C@H]1CC[C@H](Nc2nc3c(s2)CCCc2ccc(F)cc2-3)CC1 (as salt: HCl) [Example 79, 3-({4-[(9-fluoro-5,6-dihydro-4H-benzo[6,7]cyclohepta-[d][1,3]thiazol-2-yl)amino]cyclohexyl}methyl)-1,3-oxazolan-2-one]	223 to 225 °C
COCC(=O)NC[C@H]1CC[C@H](Nc2nc3c(s2)CCCc2ccc(F)cc2-3)CC1 (as salt: HCl) [Example 80, N1-({4-[(9-fluoro-5,6-dihydro-4H-benzo[6,7]-cyclohepta-[d][1,3]thiazol-2-yl)amino]cyclohexyl}-methyl)-2-methoxyacetamide]	63 to 65 °C
COCC(=O)N[C@H]1CC[C@H](CNc2nc3c(s2)CCOc2ccccc2-3)CC1 (as salt: HCl) [Example 84, N1-{4-[(4,5-dihydrobenzo[2,3]oxepino[4,5-d][1,3]thiazol-2-ylamino)methyl]cyclohexyl}-2-methoxyacetamide]	234 to 237 °C
COCCN(C=O)[C@H]1CC[C@H](CNc2nc3c(s2)CCOc2ccccc2-3)CC1 (as salt: HCl) [Example 86, N-{4-[(4,5-dihydrobenzo[2,3]oxepino[4,5-d][1,3]thiazol-2-ylamino)methyl]cyclohexyl}-N-(2-methoxyethyl)formamide]	164 to 166 °C
CCN(C=O)[C@H]1CC[C@H](CNc2nc3c(s2)CCOc2ccccc2-3)CC1 (as salt: HCl) [Example 87, trans-1-Aza-2-(4-(n-(ethyl) formamido)cyclohexyl)methyl-amino-4,5-dihydro-6-oxa-3-thia-benzo[e]azulene]	210 to 213 °C
CCCN(C=O)[C@H]1CC[C@H](CNc2nc3c(s2)CCOc2ccccc2-3)CC1 (as salt: HCl) [Example 88, N-{4-[(4,5-Dihydrobenzo[2,3]oxepino[4,5-d][1,3]-thiazol-2-ylamino)methyl]cyclohexyl}-N-propyl-formamide]	195 to 197 °C
COCC(=O)NCc1ccc(Nc2nc3c(s2)CCCc2ccc(F)cc2-3)cc1 (as salt: HCl) [Example 89, N1-{4-[(9-fluoro-5,6-dihydro-4H-benzo[6,7]cyclohepta-[d][1,3]thiazol-2-yl)amino]benzyl}-2-methoxyacetamide]	175 to 178 °C
O=S(=O)(CC(F)(F)F)NCCCCNc1nc2c(s1)CCCc1ccc(F)cc1-2 (as salt: TFA) [Example 39, 1-Aza-9-fluoro-4,5-dihydro-2-(4-(2,2,2-trifluoroethyl)-sulfonylamino)butylamino-3-thia-benzo[e]azulene]	140 to 141 °C
COc1cccc2c1OCCc1sc(NC[C@H]3CC[C@H](NS(C)(=O)=O)CC3)nc1-2 (as salt: hydrochloride) [Example 65, trans-N2-(4-Methylsulfonylamino)cyclohexylmethyl-7-methoxy-4,5-dihydro-benzo[2,3]oxepino[4,5-d][1,3]-thiazol-2-amine hydrochloride]	225 to 230 °C
CCOC(=O)N[C@H]1CC[C@H](CNc2nc3c(s2)CCCc2ccc(F)cc2-3)CC1 (as salt: hydrochloride) [Example 68, trans-N2-(4-Ethoxycarbonylamino)cyclohexylmethyl-9-fluoro-5,6-dihydro-4H-benzo[6,7]cyclohepta[d][1,3]-thiazol-2-amine hydrochloride]	94 to 97 °C
COc1ccc2c(c1)CCCc1sc(N[C@H]3CC[C@H](CNS(=O)(=O)N4CCOCC4)CC3)nc1-2 (as salt: hydrochloride) [Example 78, trans-N2-(4-(1-Morpholinylsulfonylaminomethyl)-cyclohexyl-8-methoxy-5,6-dihydro-4H-benzo[6,7]-cyclohepta[d][1,3]thiazol-2-amine hydrochloride]	130 to 132 °C
O=S(=O)(N[C@H]1CC[C@H](Nc2nc3c(s2)CCCc2ccc(F)cc2-3)CC1)c1cccnc1 (as salt: salt) [Example 54, trans-1-Aza-9-fluoro-4,5-dihydro-2-(4-(3-pyridyl-sulfonylamino)cyclohexyl)amino-3-thia-benzo[e]azulene]	165 to 167 °C
O=S(=O)(NCCCCCNc1nc2c(s1)CCCc1ccc(F)cc1-2)c1cccnc1 (as salt: salt) [Example 55, 1-Aza-9-fluoro-4,5-dihydro-2-(5-(3-pyridyl)sulfonyl-amino)pentylamino-3-thia-benzo[e]azulene]	84 to 86 °C
O=S(=O)(NCCCCNc1nc2c(s1)CCCc1ccc(F)cc1-2)c1cccnc1 (as salt: salt) [Example 56, 1-Aza-9-fluoro-4,5-dihydro-2-(4-(3-pyridyl)sulfonyl-amino)butylamino-3-thia-benzo[e]azulene]	101 to 103 °C
O=S(=O)(NC[C@H]1CC[C@H](Nc2nc3c(s2)CCCc2ccc(F)cc2-3)CC1)c1cccnc1 (as salt: salt) [Example 59, trans-1-Aza-9-fluoro-4,5-dihydro-2-(4-(3-pyridyl)-sulfonylaminomethyl)cyclohexylamino-3-thia-benzo[e]-azulene]	127 to 129 °C
CS(=O)(=O)NCC1CCC(Nc2nc3c(s2)COc2ccccc2-3)CC1 (stereo not drawn) (as salt: salt) [Example 70, 2-(4-Methylsulfonylaminomethyl)cyclohexylamino-4H-chromeno[4,3-d]thiazole]	140 to 144 °C
COc1ccc2c(c1)CCCc1sc(NC[C@H]3CC[C@H](NS(C)(=O)=O)CC3)nc1-2 (as salt: salt) [Example 71, trans-1-Aza-4,5-dihydro-8-methoxy-2-(4-methylsulfonyl-amino)cyclohexylmethylamino-3-thia-benzo[e]azulene]	94 to 97 °C
COc1ccc2c(c1)CCCc1sc(N[C@H]3CC[C@H](CNS(=O)(=O)C(C)C)CC3)nc1-2 (as salt: salt) [Example 73, trans-1-Aza-4,5-dihydro-2-(4-isopropylsulfonyl-aminomethyl)-cyclohexylamino-8-methoxy-3-thia-benzo[e]-azulene]	87 to 89 °C
CC(C)N(C=O)C[C@H]1CC[C@H](Nc2nc3c(s2)CCCc2ccc(F)cc2-3)CC1 (as salt: salt) [Example 83, trans-1-Aza-9-fluoro-4,5-dihydro-2-(4-(N-isopropyl-formamido)methyl)cyclohexylamino-3-thia-benzo[e]-azulene]	106 to 107 °C
